Source: US20130123208A1, “METHOD OF TREATING MULTIPLE SCLEROSIS WITH ADENOSINE RECEPTOR AGONISTS” (THE REGENTS OF THE UNIVERSITY OF COLORADO, a body …, priority 2010, published 2013)
Entries after “also recorded” stand apart in the source; their conditions may differ.

Tests used:
neuropathic pain = conditions: duration of effect ~35 days; cited from earlier work
[1] = system: rats with EAE (MOG-induced Experimental Autoimmune Encephalitis); assay: EAE model, motor score after single intrathecal bolus
Experimental: The EAE model described above was used. Motor score was assessed three days before and daily post MOG administration (8.25 ug intradermally). At the onset of motor symptoms (partial tail paralysis, motor score 1) rats were randomly injected with an A2A agonist, CGS21680 (3-[4-[2-[[6-amino-9-[(2R,3R,4S,5S)-5-(ethylcarbamoyl)-3,4-dihydroxy-oxolan-2-yl]purin-2-yl]amino]ethyl]phenyl]propanoic acid) (10 μM) or vehicle.

rat spines (EAE) = assay: FLAIR and T2-weighted MRI on rat spines in EAE; assay type: in vivo; conditions: ATL313 treated animals with preserved motor scores
Experimental: ATL313 (4-{3-[6-amino-9-(5-cyclopropylcarbamoyl-3,4-dihydroxy-tetrahydro-furan-2-yl)-9H-purin-2-yl]-prop-2-ynyl}-piperidine-1-carboxylic acid methyl ester) (single bolus 1 μM-not shown and 10 μM) was used in the EAE model as described above (8-9 rats/group). The change in motor symptoms and the survival curve for ATL313 (10 μM) are shown in FIGS. 4A and 4B, respectively. 1 μM ATL313 produced a reduction in motor score lasting approximately 10 days.

rats with EAE = assay: EAE model, survival curve (time to motor score 6 or higher); assay type: in vivo, Male Dark Agouti rats
Text: In a separate group of rats from Example 1, MOG was intradermally administered as described above. […] The time at which motor score reached 6 or higher after the onset of motor symptoms is represented on the survival curve shown in FIG. 2. […] A single intrathecal injection of an A2A agonist, CGS21680, improved survival percentage in rats with EAE.

[2] = system: OX-42 (microglial activation marker); assay: Immunohistochemistry of the dorsal spinal cord, OX-42; assay type: in vivo, rats; conditions: motor score 6 or higher or 24 days post onset, vs vehicle, P<0.05 (FIG. 3)
[3] = system: cd68 (classically activated macrophage marker); assay: Immunohistochemistry of the dorsal spinal cord, cd68; assay type: in vivo, rats; conditions: motor score 6 or higher or 24 days post onset, vs vehicle, P<0.05 (FIG. 3)

Row | Structure (SMILES) | neuropathic pain (neuropathic pain) | duration of attenuation of motor effects of EAE, at worst ([1]; 5 ng intrathecal single bolus) | progression of motor impairment/dysfunction induced by EAE ([1]; 5 ng intrathecal single bolus at initial onset of motor impairment (FIG. 5A)) | number of animals where motor deterioration is arrested with no further progression ([1]; 5 ng intrathecal, first group (FIG. 5B)) | number of rats whose motor symptoms continued on the usual course at around day 35 ([1]; 5 ng intrathecal, second group (FIG. 5C)) | duration of reduction in motor score ([1]; 1 μM single intrathecal bolus) | duration of arrest of progression of motor score symptoms ([1]; 10 μM single intrathecal injection (FIG. 4A)) | duration of suppression of paralysis ([1]; FIG. 6 legend, other sub-group) | paralysis ([1]; FIG. 6 legend, surviving ATL313 rats) | MRI abnormalities (hyperintensity) of spine (rat spines (EAE)) | rats still alive (rats with EAE; 10 μM intrathecal, at 70 days, with stabilized motor scores (FIG. 4B)) | survival rate (rats with EAE; 10 μM single intrathecal injection, MOG+ATL313 vs MOG+vehicle (FIG. 4B)) | survival (rats with EAE; FIG. 6 legend) | severity of motor symptoms (motor score) ([1]; 10 μM, single intrathecal injection at onset of motor symptoms, vs vehicle (FIG. 1)) | OX-42 staining [2] | cd68 staining [3] | percentage of survival (rats with EAE; 10 μM intrathecal at onset of motor symptoms, day 25, vs vehicle, P<0.05 (FIG. 2))
1 | COC(=O)N1CCC(CC#Cc2nc(N)c3ncn([C@@H]4O[C@H](C(=O)NC5CC5)C(O)C4O)c3n2)CC1 (stereo in doubt) [ATL313, 4-{3-[6-amino-9-(5-cyclopropylcarbamoyl-3,4-dihydroxy-tetrahydro-furan-2-yl)-9H-purin-2-yl]-prop-2-ynyl}-piperidine-1-carboxylic acid methyl ester] | attenuates neuropathic pain | ~35 days | good attenuation of progression of motor impairment/dysfunction | 6 | 3 | approximately 10 days | > 80 days | ~4 week | arrests paralysis in every surviving ATL313 rat | only minimal abnormalities | 6/9 | increased survival rate | markedly enhances survival |  |  |  | 
2 | CCNC(=O)[C@H]1O[C@@H](n2cnc3c(N)nc(NCCc4ccc(CCC(=O)O)cc4)nc32)[C@H](O)[C@@H]1O [CGS21680, 3-[4-[2-[[6-amino-9-[(2R,3R,4S,5S)-5-(ethylcarbamoyl)-3,4-dihydroxy-oxolan-2-yl]purin-2-yl]amino]ethyl]phenyl]propanoic acid, reference compound] |  |  |  |  |  |  |  |  |  |  |  |  |  | reduced the severity of motor symptoms; also recorded: attenuated motor symptoms | significant reduction | significant reduction | significant difference in percentage of survival
